ChEMBL document CHEMBL1148184, “Gloiosiphones A and B, Novel Metabolites from the Red Marine Alga Gloiosiphonia verticillaris” (J Nat Prod, 1993)
Activity calls are given as the source filed them.

Assays:
Format in all cases: functional, organism-based
Bacillus subtilis = test: Antibacterial activity against Bacillus subtilis ATCC 6081
Staphylococcus aureus = test: Antibacterial activity against Staphylococcus aureus ATCC 12600
Escherichia coli = test: Antibacterial activity against Escherichia coli ATCC 11775
Salmonella typhimurium = test: Antibacterial activity against Salmonella Typhimurium ATCC 14028; settings: Salmonella enterica subsp. enterica serovar Typhimurium

Measured: Activity

COCC1(O)OCCC1=O (stereo not drawn)
inactive: Bacillus subtilis | Staphylococcus aureus | Escherichia coli | Salmonella typhimurium

COC[C@@]1(O)C(=O)CC[C@@]12CC(OC)=C(OC)C2=O
inactive: Bacillus subtilis | Staphylococcus aureus | Escherichia coli | Salmonella typhimurium
